The values that follow come from patent US20130296311A1, “INHIBITORS OF HCV NS5A” (PRESIDIO PHARMACEUTICALS, INC., priority 2010, published 2013).

One assay relates to HCV 1b_Huh-Luc/Neo-ET cell line persistently expressing a bicistronic genotype 1b replicon in Huh 7 cells. The assay is described as follows: HCV replicon assay (luciferase readout, 72 h). The assay is classed as cell-based, HCV genotype 1b. The note with it: Hepatitis C virus, Huh-7, 72 h, read-out: Inhibition of HCV genotype 1b. The essentials: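 EC50 values come from a four-parameter fit of luciferase signal as % of untreated control, repeated across several determinations. The signal is from the HCV 1b_Huh-Luc/Neo-ET replicon line, dosed in triplicate one day post-plating and incubated 72 h before Bright-Glo readout.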
Background: Replicon systems follow genome replication, usually without infectious particles.
With `CN(C)[C@@H](C(=O)N1CCC[C@H]1c1ncc(C#Cc2ccc(C#Cc3cnc([C@@H]4CCCN4C(=O)[C@@H](c4ccccc4)N(C)C)[nH]3)cc2)[nH]1)c1ccccc1` [Compound 305], the EC50 is less than 1 nM.
The same measure, in the same setting: the same measure for `C[C@@H](NC(=O)OC(C)(C)C)C(=O)N1CCC[C@H]1c1ncc(-c2ccc(C#Cc3ccc(-c4cnc([C@@H]5CCCN5C(=O)[C@@H](C)NC(=O)OC(C)(C)C)[nH]4)cc3)cc2)[nH]1` [Compound 151]: 10 to 999 nM.
For `CC(C)[C@@H](C(=O)N1CCC[C@H]1c1ncc(-c2ccc(C#Cc3ccc4nc([C@@H]5CCCN5C(=O)[C@H](C(C)C)N5CCOC5=O)[nH]c4c3)cc2)[nH]1)N1CCOC1=O` [Compound 1039], the EC50 was in the range of 1 to 9.9 nM.
Still for that read-out and setting: the same measure for `COC(=O)N[C@@H](C(=O)N1CCC[C@H]1c1ncc(-c2ccc(C#Cc3ccc(-c4cnc([C@@H]5CCCN5C(=O)[C@H](NC(=O)C5CCCN5C)c5ccccc5)[nH]4)cc3)cc2)[nH]1)c1ccccc1` (stereo partly drawn) [Compound 203]: less than 1 nM; for `O=C(N[C@@H](C(=O)N1CCC[C@H]1C(=O)Nc1ccc(C#Cc2cnc([C@@H]3CCCN3C(=O)[C@H](NC(=O)C3CC3)c3ccccc3)[nH]2)cc1)c1ccccc1)C1CC1` [Compound 117]: less than 1 nM.
With `COC(=O)N[C@H](C(=O)N1CCC[C@H]1c1ncc(-c2ccc(C#Cc3ccc(-c4cnc([C@@H]5CCCN5C(=O)[C@H](NC(=O)N5CC[C@@H](O)C5)c5ccccc5)[nH]4)cc3)cc2)[nH]1)C(C)C` [Compound 975], the EC50 is less than 1 nM.
Same read-out and setting: the same measure for `COC(=O)N[C@@H](C(=O)N(C)[C@@H](C)c1ncc(-c2ccc(C#Cc3ccc(-c4cnc([C@@H]5CCCN5C(=O)[C@H](NC(=O)OC)c5ccccc5)[nH]4)cc3)cc2)[nH]1)c1ccccc1` [Compound 274]: less than 1 nM; for `CC(C)[C@H](NC(=O)N1CCN(C)CC1)C(=O)N1CCC[C@H]1c1ncc(-c2ccc(C#Cc3ccc(-c4cnc([C@@H]5CCCN5C(=O)[C@@H](NC(=O)N5CCN(C)CC5)C(C)C)[nH]4)cc3)cc2)[nH]1` [Compound 287]: greater than 1000 nM.
On the same count and under the same terms, the same measure for `COC(=O)N[C@H](C(=O)N1CCC[C@H]1c1ncc(-c2ccc(C#Cc3ccc4nc([C@@H]5CCCN5C(=O)[C@@H](C(C)C)N(C)C)[nH]c4c3)cc2)[nH]1)C(C)C` [Compound 1020]: less than 1 nM; for `C[C@H](NC(=O)[C@@H]1CCCN1C(=O)[C@H](NC(=O)C1CC1)c1ccccc1)c1ccc(C#Cc2ccc(-c3cnc([C@@H]4CCCN4C(=O)[C@H](NC(=O)C4CC4)c4ccccc4)[nH]3)cc2)cc1` [Compound 191]: less than 1 nM.
As for `COC(=O)N[C@H](C(=O)N1CCC[C@H]1c1ncc(-c2ccc3cc(C#Cc4ccc5nc([C@@H]6CCCN6C(=O)[C@@H](NC(=O)OC)C(C)C)[nH]c5c4)ccc3c2)[nH]1)C(C)C` [Compound 1111], the EC50 was less than 1 nM.
The same measure, in the same setting: the same measure for `COC(=O)N[C@@H](C(=O)N1CCC[C@H]1c1ncc(-c2ccc(C#Cc3ccc(-c4cnc([C@@H]5CCCN5C(=O)[C@H]5CCCN5C)[nH]4)cc3)cc2)[nH]1)c1ccccc1` [Compound 187]: less than 1 nM; for `CC(C)[C@H](NC(=O)N1CCC(C)(O)CC1)C(=O)N1CCC[C@H]1c1ncc(-c2ccc(C#Cc3ccc(-c4cnc([C@@H]5CCCN5C(=O)[C@@H](NC(=O)N5CCC(C)(O)CC5)C(C)C)[nH]4)cc3)cc2)[nH]1` [Compound 966]: 10 to 999 nM.
As to `O=C(N[C@@H](C(=O)N1CCC[C@H]1c1ncc(C#Cc2ccc(C#Cc3cnc([C@@H]4CCCN4C(=O)[C@H](NC(=O)C4CC4)c4ccccc4)[nH]3)cc2)[nH]1)c1ccccc1)C1CC1` [Compound 303], the EC50 was less than 1 nM.
Still for that read-out and setting: under `COC(=O)N[C@H](C(=O)N1CCC[C@H]1c1ncc(-c2ccc(C#Cc3ccc4nc([C@@H]5CCCN5C(=O)[C@@H](c5ccccc5)N(C)C)[nH]c4c3)cc2)[nH]1)C(C)C` [Compound 860] stands less than 1 nM; under `COC(=O)N[C@@H](C(=O)N1CCC[C@H]1c1ncc(-c2ccc(C#Cc3ccc(C(=O)NC[C@@H]4CCCN4C(=O)[C@@H](c4ccccc4)N4CCCCC4)cc3)cc2)[nH]1)c1ccccc1` [Compound 233], less than 1 nM; under `COC(=O)N[C@H](C(=O)N1CCC[C@H]1c1ncc(-c2ccc(C#Cc3ccc(-c4cnc([C@@H]5CCCN5C(=O)[C@@H](NC(=O)OC)C(C)(C)O)[nH]4)cc3)cc2)[nH]1)C(C)C` [Compound 994], less than 1 nM.
Still for that read-out and setting: under `COC(=O)N[C@@H](C(=O)N1CCC[C@H]1c1ncc(-c2ccc(C#Cc3ccc(-c4cnc([C@@H]5CCCN5C(=O)[C@H](NC(=O)[C@@H]5CCCO5)c5ccccc5)[nH]4)cc3)cc2)[nH]1)c1ccccc1` [Compound 195] stands less than 1 nM; under `CN1CCN(C(=O)N[C@@H](C(=O)N2CCC[C@H]2c2cc(-c3ccc(C#Cc4ccc(-c5cnc([C@@H]6CCCN6C(=O)[C@H](NC(=O)N6CCN(C)CC6)c6ccccc6)[nH]5)cc4)cc3)n[nH]2)c2ccccc2)CC1` [Compound 213], less than 1 nM; under `COC(=O)N[C@H](C(=O)N1CCC[C@H]1c1ncc(C#Cc2ccc3cc(-c4cnc([C@@H]5CCCN5C(=O)[C@@H](NC(=O)OC)C5CCOCC5)[nH]4)ccc3c2)[nH]1)C1CCOCC1` [Compound 1080], less than 1 nM.
For `CC[C@H](NC(=O)OC)C(=O)N1CCC[C@H]1c1ncc(-c2ccc(C#Cc3ccc4nc([C@@H]5CCCN5C(=O)[C@H](CC)NC(=O)OC)[nH]c4c3)cc2)[nH]1` [Compound 1036], the EC50 was less than 1 nM.
On to `COC(=O)N[C@H](C(=O)N1CCC[C@H]1c1ncc(-c2ccc(C#Cc3ccc4nc([C@@H]5CCCN5C(=O)[C@@H](NC(=O)OC)C(C)C)[nH]c4c3)nc2)[nH]1)C(C)C` [Compound 1033], for which the EC50 was less than 1 nM.
Same read-out and setting: under `COC(=O)N[C@@H](C(=O)N1CCC[C@H]1c1ncc(-c2ccc(C#Cc3ccc(-c4cnc([C@@H]5CCCN5C(=O)[C@H](NC(=O)N5CCC(C)(O)CC5)c5ccccc5)[nH]4)cc3)cc2)[nH]1)c1ccccc1` [Compound 273] stands less than 1 nM; under `COC(=O)N[C@@H](C(=O)N1CCC[C@H]1c1ncc(-c2ccc(C#Cc3ccc(-c4cnc([C@@H]5CCCN5C(=O)[C@H](NC(=O)N5CC[C@H](OC)C5)c5ccccc5)[nH]4)cc3)cc2)[nH]1)c1ccccc1` [Compound 272], less than 1 nM; under `COC(=O)N[C@@H](C(=O)N1CCC[C@H]1c1ncc(-c2ccc(C#Cc3ccc(-c4cnc([C@@H]5CCCN5C(=O)[C@H](NC(=O)N5CCS(=O)(=O)CC5)c5ccccc5)[nH]4)cc3)cc2)[nH]1)c1ccccc1` [Compound 253], less than 1 nM.
Same read-out and setting: the same measure for `CC(C)[C@H](NC(=O)N1CCC(O)CC1)C(=O)N1CCC[C@H]1c1ncc(-c2ccc(C#Cc3ccc(-c4cnc([C@@H]5CCCN5C(=O)[C@@H](NC(=O)N5CCC(O)CC5)C(C)C)[nH]4)cc3)cc2)[nH]1` [Compound 286]: greater than 1000 nM; for `COC(=O)N[C@@H](C(=O)N1CCC[C@H]1c1ncc(C#Cc2ccc(C#Cc3cnc([C@@H]4CCCN4C(=O)[C@H](NC(=O)OC)c4ccccc4)[nH]3)cc2)[nH]1)c1ccccc1` [Compound 304]: less than 1 nM; for `COC(=O)N[C@@H](CCC(N)=O)C(=O)N1CCC[C@H]1c1ncc(-c2ccc(C#Cc3ccc4nc([C@@H]5CCCN5C(=O)[C@H](CCC(N)=O)NC(=O)OC)[nH]c4c3)cc2)[nH]1` [Compound 1051]: 1 to 9.9 nM.
Consider `COC(=O)NC(C)(C)C(=O)N1CCC[C@H]1c1ncc(-c2ccc(C#Cc3ccc4nc([C@@H]5CCCN5C(=O)C(C)(C)NC(=O)OC)[nH]c4c3)cc2)[nH]1` [Compound 1050], for which the EC50 lay within 10 to 999 nM.
Same read-out and setting: under `CN1CCC(C(=O)N[C@@H](C(=O)N2CCC[C@H]2c2cc(-c3ccc(C#Cc4ccc(-c5cnc([C@@H]6CCCN6C(=O)[C@H](NC(=O)C6CCN(C)CC6)c6ccccc6)[nH]5)cc4)cc3)n[nH]2)c2ccccc2)CC1` [Compound 223-1] stands less than 1 nM; under `CC(C)[C@H](NC(=O)OC(C)(C)C)C(=O)N1CCC[C@H]1c1ncc(-c2ccc(C#Cc3ccc(-c4cnc([C@@H]5CCCN5C(=O)[C@@H](NC(=O)OC(C)(C)C)C(C)C)[nH]4)cc3)cc2)[nH]1` [Compound 165], 10 to 999 nM; under `COC(=O)N[C@H](C(=O)N1CCC[C@H]1c1nc2c([nH]1)-c1ccc(C#Cc3ccc4nc([C@@H]5CCCN5C(=O)[C@@H](NC(=O)OC)C5CCOCC5)[nH]c4c3)cc1CC2)C(C)C` [Compound 1102], less than 1 nM.
On the same count and under the same terms, under `COC(=O)N[C@H](C(=O)N1CCC[C@H]1c1nc(-c2cnc3cc(C#Cc4cnc([C@@H]5CCCN5C(=O)[C@@H](NC(=O)OC)C(C)C)[nH]4)ccc3c2)c[nH]1)C(C)C` [Compound 1076] stands less than 1 nM.

Still in this assay, the particulars now being: Hepatitis C virus, Huh-7, read-out: Inhibition of HCV genotype 1b.
As to `C=CC[C@H](NC(=O)OC)C(=O)N1CCC[C@H]1c1nc2ccc(C#Cc3ccc4c(c3)CCCc3nc([C@@H]5CCCN5C(=O)[C@@H](NC(=O)OC)C(C)C)[nH]c3-4)cc2[nH]1` [Compound 1283], the EC50 is less than 1 nM.
Turning to `COC(=O)N[C@H](C(=O)N1CCN(C(C)=O)C[C@H]1c1ncc(-c2ccc(C#Cc3ccc4nc([C@@H]5CCCN5C(=O)[C@@H](NC(=O)OC)C5CCOCC5)[nH]c4c3)cc2)[nH]1)C1CCOCC1` [Compound 1234], the EC50 fell in the range of 1 to 9.9 nM.
Take `COC(=O)N[C@H](C(=O)N1CCC[C@H]1c1nc2c([nH]1)-c1ccc(C#Cc3ccc4nc([C@@H]5CCCN5C(=O)[C@H](NC(=O)OC5CCOCC5)c5ccccc5)[nH]c4c3)cc1CCC2)C(C)C` [Compound 1282]: the EC50 is less than 1 nM.
As for `COC(=O)N[C@H](C(=O)N1CCC[C@H]1c1ncc(-c2ccc(C#Cc3ccc4nc([C@@H]5CCCN5C(=O)[C@@H](NC(=O)OC)C(C)C)[nH]c4n3)cc2)[nH]1)C(C)C` [Compound 1249], the EC50 was less than 1 nM.
Still for that read-out and setting: under `COC(=O)N[C@H](C(=O)N1CCC[C@H]1c1nc2ccc3cc(C#Cc4ccc5nc([C@@H]6CCCN6C(=O)[C@H](NC(=O)OC6CCOCC6)c6ccccc6)[nH]c5c4)ccc3c2[nH]1)C(C)C` [Compound 1276] stands less than 1 nM.
Still for that read-out and setting: the same measure for `COC(=O)N[C@H](C(=O)N1CCC[C@H]1CNC(=O)c1ccc(C#Cc2ccc3nc([C@@H]4CCCN4C(=O)[C@@H](NC(=O)OC)C(C)C)[nH]c3c2)cn1)C(C)C` [Compound 1240]: 10 to 999 nM.
